# Experimental data: the Kinase Knowledgebase extract (Sharma et al. 2016)
# Target: PIK3CA (human) (UniProt P42336)
# Assay: Assessment of PIK3CA Kinase Activity
# PIK3CA (human), sequence (P42336 whole entry, looked up): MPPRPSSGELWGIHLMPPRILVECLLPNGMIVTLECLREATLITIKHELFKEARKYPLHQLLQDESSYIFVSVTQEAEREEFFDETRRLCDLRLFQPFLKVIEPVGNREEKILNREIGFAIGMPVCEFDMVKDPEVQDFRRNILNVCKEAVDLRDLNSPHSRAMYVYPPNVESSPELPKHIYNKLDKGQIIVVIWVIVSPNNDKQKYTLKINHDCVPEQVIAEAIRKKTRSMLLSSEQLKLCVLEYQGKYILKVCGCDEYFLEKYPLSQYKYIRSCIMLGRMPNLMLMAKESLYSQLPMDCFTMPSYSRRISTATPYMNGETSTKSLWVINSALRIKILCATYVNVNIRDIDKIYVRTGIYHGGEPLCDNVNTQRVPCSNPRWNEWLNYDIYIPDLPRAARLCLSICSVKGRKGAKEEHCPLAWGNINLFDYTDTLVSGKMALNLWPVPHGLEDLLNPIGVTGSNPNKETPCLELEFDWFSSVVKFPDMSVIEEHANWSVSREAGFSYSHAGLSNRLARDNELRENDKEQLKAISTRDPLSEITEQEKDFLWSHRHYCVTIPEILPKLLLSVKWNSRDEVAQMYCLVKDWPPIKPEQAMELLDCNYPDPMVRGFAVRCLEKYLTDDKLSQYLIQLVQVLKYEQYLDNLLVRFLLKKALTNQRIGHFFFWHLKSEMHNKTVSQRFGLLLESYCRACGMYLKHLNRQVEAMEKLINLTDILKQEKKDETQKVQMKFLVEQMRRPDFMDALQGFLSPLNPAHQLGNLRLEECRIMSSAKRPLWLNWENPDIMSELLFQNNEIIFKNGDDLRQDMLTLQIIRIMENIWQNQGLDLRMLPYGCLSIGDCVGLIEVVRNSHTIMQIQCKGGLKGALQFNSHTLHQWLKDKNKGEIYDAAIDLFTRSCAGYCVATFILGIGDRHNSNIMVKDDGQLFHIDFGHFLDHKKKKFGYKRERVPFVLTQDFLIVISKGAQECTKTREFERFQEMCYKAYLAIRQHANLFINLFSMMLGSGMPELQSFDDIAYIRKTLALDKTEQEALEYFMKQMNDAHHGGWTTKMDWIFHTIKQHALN
row,Compound,IC50 [µM]
1,Cc1nc(-c2cn3c(n2)-c2ccc(C(F)F)cc2OCC3)n(C(C)C)n1,< 1
2,CC(C)n1ncnc1-c1cn2c(n1)-c1cnc(N3CCC(CO)CC3)cc1OCC2,< 1
3,CC(C)n1ncnc1-c1cn2c(n1)-c1ccc(-c3cnn(CCO)c3)cc1OCC2,< 1
4,CC(C)n1ncnc1-c1cn2c(n1)-c1ccc(-c3cncn3CCO)cc1OCC2,< 1
5,CC(C)n1ncnc1-n1cc2c(n1)-c1cc(-c3cn[nH]c3)ccc1OCC2,< 1
6,CC(C)n1ncnc1-c1cn2c(n1)-c1ccc(CN(C)C(N)=O)cc1OCC2,< 1
7,CNC(=O)CN1CCC(c2ccc3c(c2)OCCn2cc(-c4nc(C)nn4C(C)C)nc2-3)CC1,< 1
8,CC(C)n1ncnc1-c1cn2c(n1)-c1cnccc1OCC2,< 1
9,OCCN1CC(c2ccc3c(c2)OCCc2cn(-c4ncnn4-c4ccc(F)cc4F)nc2-3)C1,< 1
10,CCOc1ccc2c(c1)OCCn1cc(-c3ncnn3C(C)C)nc1-2,< 1
11,CC(C)N(CCO)C(=O)c1cn2c(n1)-c1ccc(C3CCN(CC(=O)N(C)C)CC3)cc1OCC2,< 1
12,CC(C)n1ncnc1-c1cn2c(n1)-c1ccc(OC(F)F)cc1OCC2,< 1
13,CC(C)n1ncnc1-c1cn2c(n1)-c1ccc(NCC(N)=O)cc1OCC2,< 1
14,Cc1nc(-c2cn3c(n2)-c2cnc(N4CCC[C@H]4C(N)=O)cc2OCC3)n(-c2cc(F)cc(F)c2)n1,< 1
15,Cc1nc(-c2cn3c(n2)-c2ccc([C@H]4CCCN4C(N)=O)cc2OCC3)n(C(C)C)n1,< 1
16,CC(C)n1ncnc1-c1cn2c(n1)-c1ccc(C3CCN(CCS(=O)(=O)N(C)C)CC3)cc1OCC2,< 1
17,CC(C)n1ncnc1-c1cn2c(n1)-c1ccc(-c3cnc(CC(C)(C)O)[nH]3)cc1OCC2,< 1
18,CC(C)n1ncnc1-c1cc2n(n1)-c1cc(C(=O)Nc3cnn(CCO)c3)ccc1OCC2,< 1
19,CC(C)n1ncnc1-c1cn2c(n1)-c1cc(C(N)=O)ccc1OCC2,< 1
20,CC(C)n1ncnc1-c1cn2c(n1)-c1cnc(N3CC[C@H](O)[C@H]3C(N)=O)cc1OCC2,< 1
21,CC(C)n1ncnc1-c1cn2c(n1)-c1ccc(C3CN(S(=O)(=O)CCN4CC(F)C4)C3)cc1OCC2,< 1

row,Compound,IC50 [µM]
1,CC(C)C(Oc1ccc2c(c1)OCCn1cc(-c3ncnn3CC(F)(F)F)nc1-2)C(N)=O (configuration not stated),< 1
2,CC(C)n1ncnc1-c1cn2c(n1)-c1ccc(C3=NC(C)(C)CO3)cc1OCC2,< 1
3,CC(C)n1ncnc1-c1cn2c(n1)-c1cnc(N3C[C@H](O)C[C@H]3C(N)=O)cc1OCC2,< 1
4,Cc1nc(-c2cn3c(n2)-c2cc(F)c(F)cc2OCC3)n(C(C)C)n1,< 1
5,CC(C)n1ncnc1-c1cn2c(n1)-c1cc(NC3CNC3)ncc1OCC2,< 1
6,CC(C)n1ncnc1-c1cn2c(n1)-c1cnc(NCC(N)=O)cc1OCC2,< 1
7,CC(C)n1ncnc1-c1cn2c(n1)-c1cnc(Cl)cc1OCC2,< 1
8,COC(=O)C(C)(C)n1cc(-c2ccc3c(c2)OCCn2cc(-c4nc(C)nn4C(C)C)nc2-3)cn1,< 1
9,O=C(c1ccc2c(c1)-c1nc(-c3ncnn3CC(F)(F)F)cn1CCO2)N1CCOCC1,< 1
10,CC(C)(CO)N1CCC(c2ccc3c(c2)-c2nn(-c4ncnn4-c4ccc(F)cc4F)cc2CCO3)CC1,< 1
11,CNc1ccc2c(n1)OCCn1cc(-c3ncnn3C(C)C)nc1-2,< 1
12,NC(=O)c1ccc2c(c1)OCCn1cc(-c3ncnn3-c3ccccc3Cl)nc1-2,< 1
13,Cc1nc(-c2cn3c(n2)-c2ccc(OC4CC4)cc2OCC3)n(C(C)C)n1,< 1
14,NC(=O)CN1CCC(c2ccc3c(c2)-n2nc(-c4ncnn4CC(F)(F)F)cc2CCO3)CC1,< 1
15,COCc1nc(-c2cn3c(n2)-c2ccc(-c4cnn(CC(C)(C)O)c4)cc2OCC3)n(C(C)C)n1,< 1
16,CC(C)n1ncnc1-c1cn2c(n1)-c1ccc(-c3cn(CC(C)(C)O)cn3)cc1OCC2,< 1
17,Cc1nc(-c2cn3c(n2)-c2cnc(N4CCCC4CN4CCCCC4)cc2OCC3)n(CC(F)(F)F)n1 (configuration not stated),< 1
18,CC(C)n1ncnc1-c1cn2c(n1)-c1ccc(O[C@@H](CO)C(N)=O)cc1OCC2,< 1
19,O=C(c1ccc2c(c1)-c1nc(-c3ncnn3CC(F)(F)F)cn1CCO2)N1CCN(CCO)CC1,< 1
20,CC(C)n1ncnc1-c1cn2c(n1)-c1ccc(C3CCN(C(C)(C)CO)CC3)cc1OCC2,< 1

# Next, values leading:
row,IC50 [µM],Compound
1,< 1,CC(C)n1ncnc1-c1cn2c(n1)-c1ccc(C3CCN(CC(=O)N(C)C)CC3O)cc1OCC2 (configuration not stated)
2,< 1,CC(C)n1ncnc1-c1cc2n(n1)-c1cc(C(=O)NCC(C)(C)O)ccc1OCC2
3,< 1,CC(C)n1ncnc1-c1cn2c(n1)-c1ccc(-c3cnn(C(C)(C)C(=O)O)c3)cc1OCC2
4,< 1,N#Cc1ccc2c(c1)OCCn1cc(-c3nc(N)nn3CC(F)(F)F)nc1-2
5,< 1,CC(C)n1nc(N)nc1-c1cn2c(n1)-c1cc(-c3ccccc3)ccc1OCC2
6,< 1,Cc1nc(-c2cn3c(n2)-c2ccc(C4COC4)cc2OCC3)n(C(C)C)n1
7,< 1,CC(C)n1nc(N)nc1-c1cn2c(n1)-c1ccc(-c3ccc(Cl)cc3)cc1OCC2
8,< 1,CC(C)n1ncnc1-c1cn2c(n1)-c1ccc(C3CCN(CCS(C)(=O)=O)CC3)cc1OCC2
9,< 1,COC(=O)c1ccc2c(c1)OCCn1cc(-c3ncnn3C(C)C)nc1-2
10,< 1,NC(=O)[C@@H]1CNCCN1c1ccc2c(c1)OCCn1cc(-c3ncnn3CC(F)(F)F)nc1-2
11,< 1,Nc1nc(-c2cn3c(n2)-c2ccc(-c4ccc(Cl)cc4)cc2OCC3)n(-c2ccccc2Cl)n1
12,< 1,CC[C@@H](Oc1ccc2c(c1)OCCn1cc(-c3ncnn3CC(F)(F)F)nc1-2)C(N)=O
13,< 1,CCOc1ccc2c(c1)OCCn1cc(-c3nc(C)nn3C(C)C)nc1-2
14,< 1,CC(C)n1ncnc1-c1cn2c(n1)-c1ccc(Br)cc1OCC2
15,< 1,Nc1nc(-c2cn3c(n2)-c2cc(-c4ccc(Cl)cc4)ccc2OCC3)n(-c2ccccc2Cl)n1
16,< 1,Cc1nc(-c2cn3c(n2)-c2cc(C#N)ccc2OCC3)n(C(C)C)n1
17,< 1,Cc1ncc(-c2ccc3c(c2)OCCn2cc(-c4ncnn4C(C)C)nc2-3)[nH]1
18,< 1,Cc1nc(-c2cn3c(n2)-c2cnc(NCC(N)=O)cc2OCC3)n(CC(F)(F)F)n1
19,< 1,CC(C)n1ncnc1-c1cn2c(n1)-c1ccc(OCC(N)=O)cc1OCC2

row,IC50 [µM],Compound
1,< 1,CC(C)n1ncnc1-c1cn2c(n1)-c1ccc([C@H](C)C(N)=O)cc1OCC2
2,< 1,CNC(=O)c1ccc2c(c1)OCCn1cc(-c3ncnn3-c3ccc(F)cc3F)nc1-2
3,< 1,CC(C)n1ncnc1-c1cn2c(n1)-c1cnc(N[C@@H](C)C(N)=O)cc1OCC2
4,< 1,COC(=O)C(C)Cn1cc(-c2ccc3c(c2)OCCn2cc(-c4nc(C)nn4C(C)C)nc2-3)cn1 (configuration not stated)
5,< 1,Cc1nc(-c2cn3c(n2)-c2cnc(N4CCCC4Cc4ccccc4C)cc2OCC3)n(CC(F)(F)F)n1 (configuration not stated)
6,< 1,CC(C)n1ccnc1-c1cn2c(n1)-c1ccc(-c3cnn(CC(C)(C)O)c3)cc1OCC2
7,< 1,NC(=O)[C@@H]1CCCN1c1cc2c(cn1)-c1nc(-c3ncnn3-c3ccccc3Cl)cn1CCO2
8,< 1,CC(C)n1ncnc1-c1cn2c(n1)-c1ccc(O)cc1OCC2
9,< 1,CC(C)CC(Oc1ccc2c(c1)OCCn1cc(-c3ncnn3C(C)C)nc1-2)C(N)=O (configuration not stated)
10,< 1,CC(C)n1ncnc1-c1cn2c(n1)-c1ccc(-c3ccc(Cl)cc3)cc1OCC2
11,< 1,NC(=O)[C@@H]1CCCN1c1cc2c(cn1)-c1nc(-c3ncnn3CC(F)(F)F)cn1CCO2
12,< 1,Cc1nc(-c2cn3c(n2)-c2cc(-c4cnn(C)c4)ccc2OCC3)n(C(C)C)n1
13,< 1,Cc1nc(-c2cn3c(n2)-c2ccc(-c4cnn(C5CN(C(=O)[C@H](C)O)C5)c4)cc2OCC3)n(C(C)C)n1
14,< 1,CC(C)n1nc(CO)nc1-c1cn2c(n1)-c1ccc(-c3cnn(CC(C)(C)O)c3)cc1OCC2
15,< 1,CC(Sc1ccc2c(c1)OCCn1cc(-c3ncnn3C(C)C)nc1-2)C(N)=O (configuration not stated)
16,< 1,CC(C)n1ncnc1-c1cn2c(n1)-c1cnc(N3CCC(O)CC3)cc1OCC2
17,< 1,CSc1nc(-c2cn3c(n2)-c2ccc(Br)cc2OCC3)n(C(C)C)n1
18,< 1,CC(C)n1ncnc1-c1cn2c(n1)-c1ccc(CC(=O)NO)cc1OCC2
19,< 1,CCc1ccccc1-c1ccc2c(c1)OCCn1cc(-c3ncnn3C(C)C)nc1-2

row,IC50 [µM],Compound
1,< 1,CC(C)N1CCN(C(=O)c2ccc3c(c2)-c2nc(-c4ncnn4CC(F)(F)F)cn2CCO3)CC1
2,< 1,CC(C)n1ncnc1-n1cc2c(n1)-c1cc(C(=O)Nc3cnn(CCO)c3)ccc1OCC2
3,< 1,CC(C)N1CCN(C(=O)c2ccc3c(c2)-c2nc(-c4ncnn4-c4ccccc4Cl)cn2CCO3)CC1
4,< 1,OCCN1CCN(Cc2ccc3c(c2)-n2nc(-c4ncnn4CC(F)(F)F)cc2CCO3)CC1
5,< 1,CC(C)n1ncnc1-c1cn2c(n1)-c1cnc(O[C@H](C)C(N)=O)cc1OCC2
6,< 1,CCCC(Oc1ccc2c(c1)OCCn1cc(-c3ncnn3C(C)C)nc1-2)C(N)=O (configuration not stated)
7,< 1,Oc1ccc2c(c1)OCCn1cc(-c3ncnn3CC(F)(F)F)nc1-2
8,< 1,CC(C)n1ncnc1-c1cn2c(n1)-c1ccc(C3CCN(CCO)CC3)cc1OCC2
9,< 1,COC(=O)c1ccc2c(c1)OCCn1cc(-c3cccc(C(C)C)c3)nc1-2
10,< 1,CC(C)n1ncnc1-c1cn2c(n1)-c1cnc(N3CC=C[C@H]3C(N)=O)cc1OCC2
11,< 1,Cc1nc(-c2cn3c(n2)-c2ccc(-c4cncc(F)c4)cc2OCC3)n(C(C)C)n1
12,< 1,CC(C)n1nc(N)nc1-c1cn2c(n1)-c1ccc(-c3cnn(CC(C)(C)O)c3)cc1OCC2
13,< 1,CC(C)NC(=O)CN1CCN(c2cc3c(cn2)-c2nc(-c4ncnn4C(C)C)cn2CCO3)CC1
14,< 1,Cc1nc(-c2cn3c(n2)-c2cc(-c4ccc(=O)[nH]c4)ccc2OCC3)n(C(C)C)n1
15,< 1,COc1ccc2c(c1)OCCn1cc(-c3ncnn3C(C)C)nc1-2
16,< 1,CC(C)n1ncnc1-c1cn2c(n1)-c1ccc(C3CCN(C(=O)C(C)(C)O)CC3)cc1OCC2
17,< 1,CC(C)n1ncnc1-c1cn2c(n1)-c1ccc(-c3cnc[nH]3)cc1OCC2
18,< 1,CC(C)n1ncnc1-c1cn2c(n1)-c1cnc(N3CCC[C@@]3(C)C(N)=O)cc1OCC2
